Assay results from patent US20140287997A1, “USE OF GROWTH HORMONE OR GROWTH HORMONE RECEPTOR AGONISTS TO PREVENT OR TREAT STRESS-SENSITIVE PSYCHIATRIC ILLNESS” (Massachusetts Institute of Technology, priority 2013, published 2014).

Columns and labels:
[1] = molecular target: T1, ghrelin receptor in BLA cells (Rattus norvegicus, UniProt O08725); experiment: GH release from short-term BLA cell cultures; assay type: cell-based; settings: versus vehicle, P<0.05
T1 construct: short-term cultures were generated of BLA cells and measured GH protein in the media following treatment with either MK-0677 or vehicle; endogenous in cells; host or cells: short-term primary cultures of basolateral amygdala (BLA) cells
From the text: To determine whether ghrelin receptor stimulation in amygdala triggers the release of GH as it does from the pituitary,^43 short-term cultures were generated of BLA cells and measured GH protein in the media following treatment with either MK-0677 or vehicle.

rats [2] = experiment: Forced swim as a measure of depression; assay type: in vivo, rat; settings: high dose, repeated ghrelin receptor stimulation
From the text: (§1) Forced swim as a measure of depression was also examined. […] Repeated ghrelin receptor stimulation (mimicking one effect of chronic stress, which is to enhance the circulating levels of ghrelin and thus ghrelin signaling) induces depressive behaviors in rats.

[3] = test system: GH-mediated signaling in the BLA; experiment: Auditory fear conditioning after intra-BLA AAV (GHA or GFP) and 10 days systemic MK-0677 or saline; assay type: in vivo, rat; settings: repeated systemic MK-0677 for 10 days
Protocol: An AAV viral construct to overexpress a mutant form of the rat GH protein (GHA) that acts as a functional antagonist to endogenous GH was generated.^49,50 Following infusion of AAV to overexpress either GHA or a control protein (GFP) (FIG. 5f), rats were permitted to recover for 5 weeks. After recovery, rats that were infused with GHA received daily injections of either the ghrelin receptor agonist MK-0677 (MK) or saline (SAL) for 10 days. […] At 24 h after the final injection, all rats were subjected to auditory fear conditioning, followed by assessment of long-term auditory fear memory in a subsequent session 48 h later.

rats [4] = experiment: Sucrose preference (measuring hedonia) as a measure of depression; assay type: in vivo, rat; settings: repeated ghrelin receptor stimulation
From the text: as §1, with “Sucrose preference (measuring hedonia)” for “Forced swim”, “depression with low dose MK0677 or high dose MK0677” for “depression”

T1 sequence (O08725 whole entry): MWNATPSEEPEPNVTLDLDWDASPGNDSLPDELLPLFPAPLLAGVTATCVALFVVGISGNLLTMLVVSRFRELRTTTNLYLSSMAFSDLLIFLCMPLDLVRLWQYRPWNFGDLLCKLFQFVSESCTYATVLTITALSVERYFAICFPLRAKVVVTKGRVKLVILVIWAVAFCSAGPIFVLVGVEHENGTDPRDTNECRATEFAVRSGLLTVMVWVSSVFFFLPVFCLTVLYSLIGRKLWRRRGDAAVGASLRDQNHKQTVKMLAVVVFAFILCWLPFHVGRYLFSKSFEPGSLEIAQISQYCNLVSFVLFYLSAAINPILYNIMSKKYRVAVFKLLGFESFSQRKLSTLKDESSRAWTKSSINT

GH protein released in the media [1]: significantly elevated release of GH
SMILES: CC(C)(N)C(=O)N[C@H](COCc1ccccc1)C(=O)N1CCC2(CC1)CN(S(C)(=O)=O)c1ccccc12 [MK-0677]
forced swim behaviour (rats [2]): led to immobility in the forced swim
long-term auditory fear memory [3]: fear-enhancing effects
sucrose preference (hedonia) (rats [4]; high dose): led to anhedonia
sucrose preference (hedonia) (rats [4]; low dose): led to anhedonia
